In PubChem BioAssay AID248 (DTP/NCI, 2004):
Toxic doses and inconclusive results are not listed. No stated cut-off is given here; in the data, active means T/C of 150% or more; inactive means T/C below 125%.

System: L1210 leukemia ip in BDF1 mice, survival T/C
Assay: NCI In Vivo Anticancer Drug Screen. Data for tumor model L1210 Leukemia (intraperitoneal) in B6D2F1 (BDF1) mice
Settings: endpoint: mean survival time, higher = longer survival
Method in brief: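 Tumor cells were implanted, animals were treated, and survival was followed. The result divides the treated measurement by the vehicle-control measurement.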

[1] = dose: 100.0 mg/kg/injection, schedule: Q01DX001 (ip), vehicle: carboxymethylcellulose (CMC)
[2] = dose: 100.0 mg/kg/injection, schedule: Q01DX009 (ip), vehicle: Klucel (hydroxypropylcellulose) (HPC)
[3] = dose: 100.0 mg/kg/injection, schedule: Q04DX002 (ip), vehicle: Klucel (hydroxypropylcellulose) (HPC)
[4] = dose: 200.0 mg/kg/injection, schedule: Q01DX009 (ip), vehicle: Klucel (hydroxypropylcellulose) (HPC)
[5] = dose: 200.0 mg/kg/injection, schedule: Q04DX002 (ip), vehicle: Klucel (hydroxypropylcellulose) (HPC)
[6] = dose: 400.0 mg/kg/injection, schedule: Q04DX002 (ip), vehicle: Klucel (hydroxypropylcellulose) (HPC)
[7] = dose: 50.0 mg/kg/injection, schedule: Q01DX001 (ip), vehicle: saline
[8] = dose: 100.0 mg/kg/injection, schedule: Q01DX001 (ip), vehicle: saline
[9] = dose: 200.0 mg/kg/injection, schedule: Q01DX001 (ip), vehicle: saline
[10] = dose: 400.0 mg/kg/injection, schedule: Q01DX001 (ip), vehicle: saline
[11] = dose: 100.0 mg/kg/injection, schedule: Q01DX009 (ip), vehicle: saline
[12] = dose: 100.0 mg/kg/injection, schedule: Q04DX003 (ip), vehicle: saline
[13] = dose: 200.0 mg/kg/injection, schedule: Q01DX009 (ip), vehicle: saline
[14] = dose: 200.0 mg/kg/injection, schedule: Q04DX003 (ip), vehicle: saline
[15] = dose: 400.0 mg/kg/injection, schedule: Q04DX003 (ip), vehicle: saline
[16] = dose: 100.0 mg/kg/injection, schedule: Q04DX003 (ip), vehicle: Klucel (hydroxypropylcellulose) (HPC)
[17] = dose: 200.0 mg/kg/injection, schedule: Q04DX003 (ip), vehicle: Klucel (hydroxypropylcellulose) (HPC)
[18] = dose: 400.0 mg/kg/injection, schedule: Q04DX003 (ip), vehicle: Klucel (hydroxypropylcellulose) (HPC)
[19] = dose: 100.0 mg/kg/injection, schedule: Q04DX003 (ip), vehicle: saline with Tween-80
[20] = dose: 200.0 mg/kg/injection, schedule: Q04DX003 (ip), vehicle: saline with Tween-80
[21] = dose: 400.0 mg/kg/injection, schedule: Q04DX003 (ip), vehicle: saline with Tween-80

Measured: T/C

O=[N+]([O-])c1ccc(Oc2c(Cl)c(Cl)c(Cl)c(Cl)c2Cl)c([N+](=O)[O-])c1
inactive: dose: 222.0 mg/kg/injection, schedule: Q01DX Z (ip), vehicle: methylcellulose (MC) 95 % of control | dose: 333.0 mg/kg/injection, schedule: Q01DX Z (ip), vehicle: methylcellulose (MC) 94 % of control | dose: 500.0 mg/kg/injection, schedule: Q01DX Z (ip), vehicle: methylcellulose (MC) 93 % of control

O=C1CC(Cc2n[nH]c3c2CCCC3)CC(=O)N1
inactive: [1] 100 % of control | dose: 200.0 mg/kg/injection, schedule: Q01DX001 (ip), vehicle: carboxymethylcellulose (CMC) 95 % of control | dose: 400.0 mg/kg/injection, schedule: Q01DX001 (ip), vehicle: carboxymethylcellulose (CMC) 95 % of control

Clc1ccccc1C1OC1c1ccccc1Cl (centres undefined)
inactive: [2] 105 % of control | [3] 98 % of control | [4] 102 % of control | [5] 91 % of control | dose: 400.0 mg/kg/injection, schedule: Q01DX009 (ip), vehicle: Klucel (hydroxypropylcellulose) (HPC) 94 % of control | [6] 102 % of control

O=C(/C=C/c1ccccc1)CCN1CCC2CCC(C2)C1 (centres undefined)
inactive: dose: 50.0 mg/kg/injection, schedule: Q01DX001 (ip), vehicle: carboxymethylcellulose (CMC) 103 % of control | [1] 97 % of control

COCC(=O)C(C(C)=O)C(c1ccncc1)C(C(C)=O)C(=O)COC (centres undefined)
inactive: dose: 100.0 mg/kg/injection, schedule: Q01DX009 (ip), vehicle: saline with Tween-80 98 % of control | dose: 200.0 mg/kg/injection, schedule: Q01DX009 (ip), vehicle: saline with Tween-80 97 % of control | dose: 400.0 mg/kg/injection, schedule: Q01DX009 (ip), vehicle: saline with Tween-80 93 % of control

O=C1NC(=O)C(c2ccc(C(=O)O)cc2)N1 (centres undefined)
inactive: [7] 107 % of control | [8] 105 % of control | [9] 100 % of control | [10] 96 % of control

CC(C(O)c1ccccc1)[n+]1ccccc1 (centres undefined)
inactive: dose: 75.0 mg/kg/injection, schedule: Q01DX001 (ip), vehicle: saline 102 % of control

CSC(=N)N
inactive: [8] 105 % of control | [11] 99 % of control | dose: 100.0 mg/kg/injection, schedule: Q04DX002 (ip), vehicle: saline 100 % of control | [12] 101 % of control | [9] 96 % of control | [13] 91 % of control | dose: 200.0 mg/kg/injection, schedule: Q04DX002 (ip), vehicle: saline 100 % of control | [14] 97 % of control | dose: 400.0 mg/kg/injection, schedule: Q01DX009 (ip), vehicle: saline 89 % of control | [15] 97 % of control

CCCN=C(C)c1ccccc1O
inactive: dose: 100.0 mg/kg/injection, schedule: Q04DX003 (ip), vehicle: acetone 97 % of control | dose: 200.0 mg/kg/injection, schedule: Q04DX003 (ip), vehicle: acetone 95 % of control

C(=N\N1CCN(/N=C/c2ccc(OCc3ccccc3)cc2)CC1)/c1ccc(OCc2ccccc2)cc1
inactive: [8] 102 % of control | [9] 96 % of control | [10] 93 % of control

CC[n+]1c(COCCOc2ccccc2)sc2cc3c(cc21)OCO3
inactive: [8] 101 % of control

Cc1cccc(C)c1NC(=O)Nc1ccc2c(c1)OCO2
inactive: [16] 93 % of control | [17] 92 % of control | [18] 88 % of control

CC(=O)OCC[N+](C)(C)CCCCC[N+](C)(C)CCOC(C)=O
inactive: [11] 100 % of control | [12] 95 % of control | [13] 113 % of control | [14] 102 % of control | [15] 88 % of control

CSc1ccc2[nH]c3c(c2c1)CCNC3
inactive: [19] 108 % of control | [20] 105 % of control | [21] 98 % of control

O=C(O)/C=C/C(=O)Nc1cc(Cl)cc2c1-c1c(Cl)cc(Cl)cc1C2=O
inactive: dose: 50.0 mg/kg/injection, schedule: Q01DX009 (ip), vehicle: saline 94 % of control | [11] 94 % of control | [16] 98 % of control | [13] 96 % of control | [17] 98 % of control

COC(=O)c1ccc([N+](=O)[O-])cc1O
inactive: [19] 101 % of control | [20] 102 % of control | [21] 104 % of control

O=C(Nc1cccc(C2=NCCN2)c1)c1ccc(N=Nc2ccc(C(=O)Nc3cccc(C4=NCCN4)c3)cc2)cc1
inactive: dose: 93.0 mg/kg/injection, schedule: Q01DX Z (ip), vehicle: water 93 % of control | dose: 186.0 mg/kg/injection, schedule: Q01DX Z (ip), vehicle: water 100 % of control

COc1ccccc1NC(=O)CC(=O)c1ccc([N+](=O)[O-])cc1
inactive: dose: 100.0 mg/kg/injection, schedule: Q01DX009 (ip), vehicle: saline sonified 103 % of control | [16] 101 % of control | dose: 200.0 mg/kg/injection, schedule: Q01DX009 (ip), vehicle: saline sonified 100 % of control | [17] 105 % of control | dose: 400.0 mg/kg/injection, schedule: Q01DX009 (ip), vehicle: saline sonified 103 % of control | [18] 98 % of control

O=[N+]([O-])C(CO)(CO)CO
inactive: [12] 104 % of control | [14] 101 % of control | [15] 101 % of control

CC(C)CCCC(C)CCCC(C)CCCCC(C)CCCC(C)CCCC(C)C (centres undefined)
inactive: [3] 103 % of control | [5] 106 % of control | [6] 109 % of control

CSc1nc(NN(C)C)c2[nH]c(C)nc2n1
inactive: [8] 92 % of control | [9] 97 % of control

O=C1OC(=C(Br)Br)C2C3C=CC(C3)C12 (centres undefined)
inactive: [12] 98 % of control | [14] 107 % of control

CCCC/C(=N/NC(N)=O)C(OC)OC
inactive: dose: 100.0 mg/kg/injection, schedule: Q01DX001 (ip), vehicle: other 92 % of control | dose: 200.0 mg/kg/injection, schedule: Q01DX001 (ip), vehicle: other 86 % of control | dose: 400.0 mg/kg/injection, schedule: Q01DX001 (ip), vehicle: other 94 % of control

Clc1ccc(CSc2ncc(Br)c(N3CC3)n2)cc1
inactive: dose: 100.0 mg/kg/injection, schedule: Q01DX Z (ip), vehicle: methylcellulose (MC) 93 % of control | dose: 200.0 mg/kg/injection, schedule: Q01DX Z (ip), vehicle: methylcellulose (MC) 88 % of control

CCOC(=O)C(O)(CC)c1ccncc1Br (centres undefined)
inactive: dose: 75.0 mg/kg/injection, schedule: Q04DX003 (ip), vehicle: Klucel (hydroxypropylcellulose) (HPC) 95 % of control | dose: 100.0 mg/kg/injection, schedule: Q01DX001 (ip), vehicle: Klucel (hydroxypropylcellulose) (HPC) 102 % of control | dose: 150.0 mg/kg/injection, schedule: Q04DX003 (ip), vehicle: Klucel (hydroxypropylcellulose) (HPC) 91 % of control | dose: 200.0 mg/kg/injection, schedule: Q01DX001 (ip), vehicle: Klucel (hydroxypropylcellulose) (HPC) 102 % of control | dose: 300.0 mg/kg/injection, schedule: Q04DX003 (ip), vehicle: Klucel (hydroxypropylcellulose) (HPC) 101 % of control | dose: 400.0 mg/kg/injection, schedule: Q01DX001 (ip), vehicle: Klucel (hydroxypropylcellulose) (HPC) 112 % of control

CCCCCCCCCCCCNC(C)=O
inactive: dose: 100.0 mg/kg/injection, schedule: Q01DX005 (ip), vehicle: Klucel (hydroxypropylcellulose) (HPC) 97 % of control | [2] 105 % of control | [3] 98 % of control | [19] 97 % of control | dose: 200.0 mg/kg/injection, schedule: Q01DX005 (ip), vehicle: Klucel (hydroxypropylcellulose) (HPC) 94 % of control | [4] 99 % of control | [5] 91 % of control | [20] 98 % of control | dose: 400.0 mg/kg/injection, schedule: Q01DX005 (ip), vehicle: Klucel (hydroxypropylcellulose) (HPC) 102 % of control | [6] 106 % of control | [21] 90 % of control

OCC1OC(n2cnc3cncnc32)CC1O (centres undefined)
inactive: [8] 103 % of control | [9] 97 % of control | [10] 107 % of control

CCCCCCCNC(=S)NNC(=O)CCCC(=O)NNC(=S)NCCCCCCC
inactive: [7] 98 % of control | [8] 96 % of control | [9] 96 % of control | [10] 90 % of control
